Data from patent US20260356860A1, “2-SUBSTITUTED 3,4A,5,7,8,8A-HEXAHYDRO-4H-THIOPYRANO[4,3-DJPYRIMIDIN-4-ONES FOR WOUND TREATMENT” (priority 2022, published 2026).

Legend:
Assay in all cases: Bacteriostasis, log reduction
Type in all cases: cell-based
[1] = tested on: A. baumannii (derived from ATCC ® 19606 ™); conditions: A. baumannii ATCC 19606
[2] = tested on: E. coli (derived from ATCC ® 25922 ™); conditions: E. coli ATCC 25922
[3] = tested on: E. coli (derived from ATCC ® 8739 ™); conditions: E. coli ATCC 8739
[4] = tested on: E. coli 0157:H7 (derived from ATCC ® 12900 ™); conditions: E. coli 0157:H7 ATCC 12900
[5] = tested on: E. faecalis (derived from ATCC ® 19433 ™); conditions: E. faecalis ATCC 19433
[6] = tested on: P. aeruginosa (derived from ATCC ® 15442 ™); conditions: P. aeruginosa ATCC 15442
[7] = tested on: P. aeruginosa (derived from ATCC ® 9027 ™); conditions: P. aeruginosa ATCC 9027
[8] = tested on: P. vulgaris (derived from ATCC ® 8427 ™); conditions: P. vulgaris ATCC 8427
[9] = tested on: S. aureus (derived from ATCC ® 6538 ™); conditions: S. aureus ATCC 6538
[10] = tested on: S. epidermidis (derived from ATCC ® 14990 ™); conditions: S. epidermidis ATCC 14990
[11] = tested on: S. maltophilia (derived from ATCC ® 13637 ™); conditions: S. maltophilia ATCC 13637
[12] = tested on: S. pyogenes (derived from ATCC ® 19615 ™); conditions: S. pyogenes ATCC 19615

O=c1[nH]c(-c2ccc(-c3ccc(B(O)O)cc3)cc2)nc2c1CSCC2 [Compound 10, (4′-(4-oxo-3,5,7,8-tetrahydro-4H-thiopyrano[4,3-d]pyrimidin-2-yl)-[1,1′-biphenyl]-4-yl)boronic acid]
Average result ([1]; 24 h): <200
Log Reduction ([1]; 24 h): >3.0
Log Value ([1]; 24 h): <2.3
Average result ([1]; 72 h): <200
Log Reduction ([1]; 72 h): >3.0
Log Value ([1]; 72 h): <2.3
Average result ([2]; 24 h): <200
Log Reduction ([2]; 24 h): >3.1
Log Value ([2]; 24 h): <2.3
Average result ([2]; 72 h): <200
Log Reduction ([2]; 72 h): >3.1
Log Value ([2]; 72 h): <2.3
Average result ([3]; 24 h): <200
Log Reduction ([3]; 24 h): >3.2
Log Value ([3]; 24 h): <2.1
Average result ([3]; 72 h): 6.0 × 10^2
Log Reduction ([3]; 72 h): 2.5
Log Value ([3]; 72 h): 2.8
Average result ([4]; 24 h): <200
Log Reduction ([4]; 24 h): >1.9
Log Value ([4]; 24 h): <2.3
Average result ([4]; 72 h): <200
Log Reduction ([4]; 72 h): >1.9
Log Value ([4]; 72 h): <2.3
Average result ([5]; 24 h): 2.9 × 10^4
Log Reduction ([5]; 24 h): 0.3
Log Value ([5]; 24 h): 4.5
Average result ([5]; 72 h): <200
Log Reduction ([5]; 72 h): >2.5
Log Value ([5]; 72 h): <2.3
Average result ([6]; 24 h): <200
Log Reduction ([6]; 24 h): >3.1
Log Value ([6]; 24 h): <2.3
Average result ([6]; 72 h): <200
Log Reduction ([6]; 72 h): >3.1
Log Value ([6]; 72 h): <2.3
Average result ([7]; 24 h): <200
Log Reduction ([7]; 24 h): >3.0
Log Value ([7]; 24 h): <2.3
Average result ([7]; 72 h): <200
Log Reduction ([7]; 72 h): >3.0
Log Value ([7]; 72 h): <2.3
Average result ([8]; 24 h): <200
Log Reduction ([8]; 24 h): >3.6
Log Value ([8]; 24 h): <2.3
Average result ([8]; 72 h): <200
Log Reduction ([8]; 72 h): >3.6
Log Value ([8]; 72 h): <2.3
Average result ([9]; 24 h): 1.5 × 10^5
Log Reduction ([9]; 24 h): 0.1
Log Value ([9]; 24 h): 5.2
Average result ([9]; 72 h): 6.7 × 10^3
Log Reduction ([9]; 72 h): 1.5
Log Value ([9]; 72 h): 3.8
Average result ([10]; 24 h): 1.1 × 10^4
Log Reduction ([10]; 24 h): 0.8
Log Value ([10]; 24 h): 4.0
Average result ([10]; 72 h): 3.3 × 10^2
Log Reduction ([10]; 72 h): 2.3
Log Value ([10]; 72 h): 2.5
Average result ([11]; 24 h): <200
Log Reduction ([11]; 24 h): >2.8
Log Value ([11]; 24 h): <2.3
Average result ([11]; 72 h): <200
Log Reduction ([11]; 72 h): >2.8
Log Value ([11]; 72 h): <2.3
Average result ([12]; 24 h): <200
Log Reduction ([12]; 24 h): >3.2
Log Value ([12]; 24 h): <2.3
Average result ([12]; 72 h): <200
Log Reduction ([12]; 72 h): >3.2
Log Value ([12]; 72 h): <2.3

COC(=O)NCCOC(C)(C)c1ccc(-c2nc3c(c(=O)[nH]2)CSCC3)cc1 [Compound 18, methyl (2-((2-(4-(4-oxo-3,5,7,8-tetrahydro-4H-thiopyrano[4,3-d]pyrimidin-2-yl)phenyl)propan-2-yl)oxy)ethyl)carbamate]
Average result ([1]; 24 h): <200
Log Reduction ([1]; 24 h): >3.0
Log Value ([1]; 24 h): <2.3
Average result ([1]; 72 h): <200
Log Reduction ([1]; 72 h): >3.0
Log Value ([1]; 72 h): <2.3
Average result ([2]; 24 h): <200
Log Reduction ([2]; 24 h): >2.3
Log Value ([2]; 24 h): <2.3
Average result ([2]; 72 h): <200
Log Reduction ([2]; 72 h): >2.3
Log Value ([2]; 72 h): <2.3
Average result ([3]; 24 h): 5.3 × 10^2
Log Reduction ([3]; 24 h): 1.8
Log Value ([3]; 24 h): 2.7
Average result ([3]; 72 h): <200
Log Reduction ([3]; 72 h): >2.2
Log Value ([3]; 72 h): <2.3
Average result ([4]; 24 h): <200
Log Reduction ([4]; 24 h): >1.9
Log Value ([4]; 24 h): <2.3
Average result ([4]; 72 h): <200
Log Reduction ([4]; 72 h): >1.9
Log Value ([4]; 72 h): <2.3
Average result ([5]; 24 h): 2.7 × 10^5
Log Reduction ([5]; 24 h): No
Log Value ([5]; 24 h): 5.4
Average result ([5]; 72 h): 1.9 × 10^5
Log Reduction ([5]; 72 h): No
Log Value ([5]; 72 h): 5.3
Average result ([6]; 24 h): <200
Log Reduction ([6]; 24 h): >2.9
Log Value ([6]; 24 h): <2.3
Average result ([6]; 72 h): <200
Log Reduction ([6]; 72 h): >2.9
Log Value ([6]; 72 h): <2.3
Average result ([7]; 24 h): <200
Log Reduction ([7]; 24 h): >2.5
Log Value ([7]; 24 h): <2.3
Average result ([7]; 72 h): <200
Log Reduction ([7]; 72 h): >2.5
Log Value ([7]; 72 h): <2.3
Average result ([8]; 24 h): <200
Log Reduction ([8]; 24 h): >3.6
Log Value ([8]; 24 h): <2.3
Average result ([8]; 72 h): <200
Log Reduction ([8]; 72 h): >3.6
Log Value ([8]; 72 h): <2.3
Average result ([9]; 24 h): 4.7 × 10^4
Log Reduction ([9]; 24 h): 0.5
Log Value ([9]; 24 h): 4.7
Average result ([9]; 72 h): 9.3 × 10^2
Log Reduction ([9]; 72 h): 2.2
Log Value ([9]; 72 h): 3.0
Average result ([10]; 24 h): 8.0 × 10^2
Log Reduction ([10]; 24 h): 2.0
Log Value ([10]; 24 h): 2.9
Average result ([10]; 72 h): <200
Log Reduction ([10]; 72 h): >2.6
Log Value ([10]; 72 h): <2.3
Average result ([11]; 24 h): <200
Log Reduction ([11]; 24 h): >2.8
Log Value ([11]; 24 h): <2.3
Average result ([11]; 72 h): <200
Log Reduction ([11]; 72 h): >2.8
Log Value ([11]; 72 h): <2.3
Average result ([12]; 24 h): <200
Log Reduction ([12]; 24 h): >3.2
Log Value ([12]; 24 h): <2.3
Average result ([12]; 72 h): <200
Log Reduction ([12]; 72 h): >3.2
Log Value ([12]; 72 h): <2.3
